Tests used:
MFM-223 = test: normalised response (% of control), CellTiter-Glo; higher = more viable cells (100 = DMSO, 0 = benzethonium chloride kill control); conditions: incubation time: 72 h
Description: (§1)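 DSRT, 72 h incubation, CellTox Green / CellTiter-Glo readout. Signal is normalised to DMSO and benzethonium chloride controls. Value is the normalised response at the highest dose.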

CAL-85-1 = test: as above; conditions: incubation time: 72 h
Description: as §1

HCC1599 [1] = test: as above; conditions: incubation time: 72 h
Description: as §1

Hs578T [2] = test: as above; conditions: incubation time: 72 h
Description: as §1

MCF-10A [3] = test: as above; conditions: incubation time: 72 h
Description: as §1

HDQ-P1 = test: as above; conditions: incubation time: 72 h
Description: as §1

HCC1143 = test: as above; conditions: incubation time: 72 h
Description: as §1

CAL-148 = test: as above; conditions: incubation time: 72 h
Description: as §1

SK-BR-3 = test: as above; conditions: incubation time: 72 h
Description: as §1

HCC1937 = test: as above; conditions: incubation time: 72 h
Description: as §1

BT-549 = test: as above; conditions: incubation time: 72 h
Description: as §1

MDA-MB-468 [4] = test: as above; conditions: incubation time: 72 h
Description: as §1

DU-4475 = test: as above; conditions: incubation time: 72 h
Description: as §1

MDA-MB-231 = test: as above; conditions: incubation time: 72 h
Description: as §1

CAL-120 [5] = test: as above; conditions: incubation time: 72 h
Description: as §1

MDA-MB-453 = test: as above; conditions: incubation time: 72 h
Description: as §1

CAL-51 = test: as above; conditions: incubation time: 72 h
Description: as §1

BT-474 [6] = test: as above; conditions: incubation time: 72 h
Description: as §1

MDA-MB-436 = test: as above; conditions: incubation time: 72 h
Description: as §1

MDA-MB-468 [7] = conditions: 72 h
How it was run: (§2)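 In this assay, breast cancer cell lines spent 72 h with compound at 5 concentrations in 10-fold steps over a compound-specific 10,000-fold range. The first readout was cell death by CellTox Green fluorescence, and the second was viability by CellTiter-Glo luminescence, each normalised per plate to 0.1 % DMSO and a positive kill control. EC50 came from the dose-response curves, censored at the top concentration.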

HCC1599 [8] = test: drug sensitivity score (DSS), CellTox Green (DSS (AUC-based score)); higher = stronger drug effect (viability inhibition or cytotoxicity); extreme values may be limits of the assay; conditions: incubation time: 72 h
How it was run: (§3)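 Each compound occupied 5 concentrations in 10-fold steps over its own 10,000-fold range in 384-well plates, into which breast cancer cell lines were seeded as 20 µl suspension. Following 72 h of incubation, CellTox Green fluorescence (485/520 nm) was measured, and CellTiter-Glo luminescence was measured after 10 min at room temperature. Plates were individually normalised to 0.1 % DMSO and a positive kill control. From the area under the fitted dose-response curve, a drug sensitivity score was calculated.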

Hs578T [9] = test: as above; conditions: incubation time: 72 h
How it was run: as §3

MCF-10A [10] = test: as above; conditions: incubation time: 72 h
How it was run: as §3

CAL-120 [11] = test: as above; conditions: incubation time: 72 h
How it was run: as §3

BT-474 [12] = conditions: 72 h
How it was run: as §2

| EC50, CellTiter-Glo (MDA-MB-468 [7]) [µM] | EC50, CellTiter-Glo (BT-474 [12]) [µM] | Compound | normalised response (MFM-223) [%] | normalised response (CAL-85-1) [%] | normalised response (HCC1599 [1]) [%] | normalised response (Hs578T [2]) [%] | normalised response (MCF-10A [3]) [%] | normalised response (HDQ-P1) [%] | normalised response (HCC1143) [%] | normalised response (CAL-148) [%] | normalised response (SK-BR-3) [%] | normalised response (HCC1937) [%] | normalised response (BT-549) [%] | normalised response (MDA-MB-468 [4]) [%] | normalised response (DU-4475) [%] | normalised response (MDA-MB-231) [%] | normalised response (CAL-120 [5]) [%] | normalised response (MDA-MB-453) [%] | normalised response (CAL-51) [%] | normalised response (BT-474 [6]) [%] | normalised response (MDA-MB-436) [%] | drug sensitivity score (HCC1599 [8]) | drug sensitivity score (Hs578T [9]) | drug sensitivity score (MCF-10A [10]) | drug sensitivity score (CAL-120 [11]) |
| --- | --- | --- | --- | --- | --- | --- | --- | --- | --- | --- | --- | --- | --- | --- | --- | --- | --- | --- | --- | --- | --- | --- | --- | --- | --- |
|  |  | Cn1cc(C2=Nc3cc(NC(=O)C(N)C4CCCCC4)cc4c3C2=CNNC4=O)cn1 (stereo unspecified) (10000 nM) | 50.4 | 26.7 | 10.9 | 26.6 | 38.6 | 48.6 | 14.7 | 53.1 | 8.5 | 21.2 | 12.1 | 12.4 | 48.4 | 37.3 | 42.8 | 46.6 | 25.2 | 38.3 | 22.6 |  |  |  |  |
|  |  | COc1cc2c(cc1O)CC[C@@H]1[C@@H]2CC[C@]2(C)[C@@H](O)CC[C@@H]12 [2-methoxyestradiol] (10000 nM) | 54.4 | 33.3 | 31.6 | 25.4 | 67.1 | 73.7 | 49.3 | 39.8 | 17.1 | 68.5 | 48.8 | 34.4 | 42.2 | 51.9 | 62.6 | 59.7 | 31.1 | 58.1 | 44.7 |  |  |  |  |
|  |  | Cc1sc2c(c1C)C(c1ccc(Cl)cc1)=N[C@@H](CC(=O)OC(C)(C)C)c1nnc(C)n1-2 [(+)JQ1] (10000 nM) | 45.1 | 27.9 | 85.5 | 41.3 | 46.5 | 71.1 | 58.3 | 49.1 | 53.2 | 68.2 | 35.7 | 36.6 | 20.4 | 64.2 | 78 | 32.6 | 47.5 | 66.1 | 76.4 |  |  |  |  |
| > 10 |  | CC1(C)CCC(CN2CCN(c3ccc(C(=O)NS(=O)(=O)c4ccc(NCC5CCOCC5)c([N+](=O)[O-])c4)c(Oc4cnc5[nH]ccc5c4)c3)CC2)=C(c2ccc(Cl)cc2)C1 [ABT-199] |  |  |  |  |  |  |  |  |  |  |  |  |  |  |  |  |  |  |  | 0 | 0 | 0 | 0.378 |
|  |  | Oc1ncnc2[nH]ncc12 [Allopurinol] |  |  |  |  |  |  |  |  |  |  |  |  |  |  |  |  |  |  |  | 0 | 0 | 0 | 0 |
|  |  | Oc1ncnc2[nH]ncc12 [Allopurinol] (10000 nM) | 103 | 106 | 102 | 102 | 105 | 95.1 | 104 | 106 | 114 | 102 | 102 | 97.9 | 99.7 | 103 | 99.1 | 111 | 131 | 97.9 | 101 |  |  |  |  |
|  | > 10 | O=C1CN2Cc3c(ccc(Cl)c3Cl)N=C2N1 [Anagrelide] |  |  |  |  |  |  |  |  |  |  |  |  |  |  |  |  |  |  |  | 0 | 0 | 0 | 0 |
|  |  | O=C1CN2Cc3c(ccc(Cl)c3Cl)N=C2N1 [Anagrelide] (10000 nM) | 99.6 | 94.4 | 97 | 80.5 | 105 | 90.9 | 93 | 96.4 | 102 | 97.9 | 97.3 | 92 | 98.9 | 99.5 | 96.5 | 100 | 88 | 88 | 96 |  |  |  |  |
|  |  | Nc1ncn([C@@H]2O[C@H](CO)[C@@H](O)[C@H]2O)c(=O)n1 [Azacitidine] (10000 nM) | 53.8 | 106 | 76.1 | 58.9 | 77 | 63 | 75 | 87.7 | 92.4 | 69.3 | 45 | 17 | 60.7 | 68 | 61.6 | 102 | 91.2 | 71.4 | 54.7 |  |  |  |  |
|  |  | O=NN(CCCl)C(=O)NCCCl [Carmustine] |  |  |  |  |  |  |  |  |  |  |  |  |  |  |  |  |  |  |  | 0 | 0 | 0 | 0 |
|  |  | O=NN(CCCl)C(=O)NCCCl [Carmustine] (10000 nM) | 94.4 | 101 | 104 | 101 | 93.8 | 96.1 | 106 | 100 | 95.2 | 99.6 | 110 | 97.3 | 96.5 | 99.9 | 96.2 | 87.3 | 116 | 91.5 | 96.7 |  |  |  |  |
